How the values were obtained:
[1] = anti-ulcer activity used as index in fractionation; conditions: single (peak) component from HPLC fractionation of cinnamon extract
Experimental: After washing with water, the resin was eluted using a 40 to 80% methanol aqueous solution as an eluent; the eluted fraction thus obtained was concentrated under reduced pressure and freeze dried to afford 148 g of a crude powder.
50 kg of cinnamon was treated with hot water at 60° to 100° C. for 1 to 2 hours, and the resultant extract was adsorbed onto 100 to 140 liters of the Amberlite XAD-2 resin. This resin was washed with water, then eluted using a 40 to 80% aqueous methanol solution as an eluent; the eluted fraction thus obtained was concentrated under reduced pressure and freeze dried to obtain 148 g of a crude powder.
200 kg of cinammon was treated with hot water at 60° to 100° C. for 1 to 2 hours, and the resultant extract was adsorbed onto 400 to 500 liters of the Amberlite XAD-2 resin. This resin was washed with water, then eluted with a 40 to 80% aqueous methanol solution as an eluent, the eluted fraction thus obtained was concentrated under reduced pressure and freeze-dried to obtain 590 g of a crude powder.

[2] = test system: Serotonin Induced Ulcer; assay: Serotonin Induced Ulcer; type: in vivo, Wister strain male rats; design: unit not given here; conditions: 30 min before serotonin; for Ulcer Index: mean ± standard error (n=8)
Experimental: Wister strain male rats (weighing 160 to 180 g) were used after one day's fasting. Serotonin creatinine sulfate (30 mg/ml) was subcutaneously administered to the rats on the back at a rate of 1 ml per kg of the body weight. The stomach was excised 5 hours after administration of serotonin, and the total area of hemorrhagic erosion was measured as an ulcer index. The test drug was intragastrically administered to the rats through an oral Zonde (probe) 30 minutes before administration of serotonin.
(§1) Each numeral in the table indicates the mean ± standard error (n=8)
(§2) All the test drugs (compounds of this invention) were intragastrically administered by an oral Zonde (probe).

[3] = test system: Stress Ulcer; assay: Stress Ulcer; type: in vivo, Wister strain male rats; conditions: immediately before stress; for Ulcer Index: mean ± standard error (n=8)
Experimental: Wister strain male rats (weighing 230-250 g) were fasted for 2 days, then, while confined in a Tokyo University Pharmaceutics Laboratory model cage, they were immersed up to the xiphocosta and pulled up 6 hours later, to determine the ulcer index. That is, the rats were clubbed to death, the major axis of hemorrhagic erosion was measured, and the total was made the ulcer index. the test drug was intragastrically administered through an oral Zonde (probe) immediately before the loading of stress.
as §1, §2

[4] = test system: Ethanol Induced Ulcer; assay: Ethanol Induced Ulcer; type: in vivo, Wister strain male rats; design: Rate of Inhibition: unit not given here; conditions: 30 min before ethanol; for Ulcer Index: mean ± standard error (n=8)
Experimental: Wister strain male rats (weighing 160-180 g) were fasted for one day and intragastrically administed with 50% (v/v) ethanol at a rate of 1 ml per rat. The test drug was intragastirically administered through an oral Zonde (probe) 30 minutes before administration of ethanol. One hour after administration of ethanol, the rats were poisoned to death by inhalation of chloroform, each stomach was excised, the major axis of hemorrhagic erosion on the stomach part was measured, and the total was made an ulcer index.
as §1, §2

## CC1=C(/C=C/C(CO)CO)C(C)(CO[C@@H]2O[C@H](CO)[C@@H](O)[C@H](O)[C@H]2O)CCC1=O (stereo partly drawn) [(IV-1), 2,4-dimethyl-3-(4-hydroxy-3-hydroxymethyl-1-butenyl)-4-(β-D-glucopyranosyl)oxymethyl-2-cyclohexen-1-one]
[1]
  anti-ulcer activity among fractions: manifesting the activity most strongly
[2]; 0.1 μg/kg intragastric
  Rate of Inhibition: 47.0
  Ulcer Index: 7.1 ± 3.4
[2]; 1 μg/kg intragastric
  Rate of Inhibition: 51.5
  Ulcer Index: 6.5 ± 2.5

## COc1cc(O[C@@H]2O[C@H](CO[C@@H]3OC[C@](O)(CO)[C@H]3O)[C@@H](O)[C@H](O)[C@H]2O)cc(OC)c1OC [(II-1), 3,4,5-trimethoxyphenol-β-D-apiofranosyl-(1→6)-β-D-glucopyranoside]
[3]; 0.15 μg/kg intragastric
  Rate of Inhibition: 23.7
  Ulcer Index: 21.6 ± 5.8
[3]; 0.30 μg/kg intragastric
  Rate of Inhibition: 58.5
  Ulcer Index: 11.7 ± 3.0
[1]
  anti-ulcer activity among fractions: manifesting the activity most strongly
[4]; 0.15 μg/kg intragastric
  Rate of Inhibition: 11.1
  Ulcer Index: 45.3 ± 14.0
[4]; 0.30 μg/kg intragastric
  Rate of Inhibition: 47.1
  Ulcer Index: 27.0 ± 7.4
[2]; 0.15 μg/kg intragastric
  Rate of Inhibition: 57.1
  Ulcer Index: 7.5 ± 2.3
[2]; 0.30 μg/kg intragastric
  Rate of Inhibition: 70.9
  Ulcer Index: 5.1 ± 1.9

## CC1=C(/C=C/C(CO)CO)C(C)(CO)CCC1=O (stereo not drawn) [(IV-2)]
[2]; 0.06 μg/kg intragastric
  Rate of Inhibition: 65.7
  Ulcer Index: 4.6 ± 1.2
[2]; 6 μg/kg intragastric
  Rate of Inhibition: 76.9
  Ulcer Index: 3.1 ± 1.2

## COc1cc(O)cc(OC)c1OC [(II-2), 3,4,5-trimethoxyphenol]
[2]; 0.05 μg/kg intragastric
  Rate of Inhibition: 26.7
  Ulcer Index: 15.1 ± 4.6
[2]; 0.15 μg/kg intragastric
  Rate of Inhibition: 45.6
  Ulcer Index: 11.2 ± 2.4

## CC(=O)C=C=C1C(C)(C)CC(O[C@@H]2O[C@H](CO[C@@H]3OC[C@](O)(CO)[C@H]3O)[C@@H](O)[C@H](O)[C@H]2O)CC1(C)O (stereo partly drawn) [(III-1)]
[3]; 0.075 μg/kg intragastric
  Rate of Inhibition: 41.3
  Ulcer Index: 16.6 ± 3.2
[3]; 0.15 μg/kg intragastric
  Rate of Inhibition: 66.8
  Ulcer Index: 9.4 ± 2.3
[1]
  anti-ulcer activity among fractions: manifesting the activity most strongly
[4]; 0.075 μg/kg intragastric
  Rate of Inhibition: 51.6
  Ulcer Index: 24.7 ± 10.6
[4]; 0.15 μg/kg intragastric
  Rate of Inhibition: 56.5
  Ulcer Index: 22.2 ± 8.1
[2]; 0.075 μg/kg intragastric
  Rate of Inhibition: 2.9
  Ulcer Index: 17.0 ± 3.1
[2]; 0.15 μg/kg intragastric
  Rate of Inhibition: 75.4
  Ulcer Index: 4.3 ± 1.1

— US4888417A, “Therapeutic and prophylactic agents for peptic ulcer” (Green Cross Corporation, priority 1985, dated 1989)
